For one compound, Ki results are on record in BindingDB's records for PubMed 11714892 (Recordati, 2001).

The Ki is the equilibrium dissociation constant of an inhibitor or competing ligand from its target.

The target in experiment [1] is T1, Alpha-1D adrenergic receptor (Homo sapiens, UniProt P25100).
T1 sequence (P25100 whole entry): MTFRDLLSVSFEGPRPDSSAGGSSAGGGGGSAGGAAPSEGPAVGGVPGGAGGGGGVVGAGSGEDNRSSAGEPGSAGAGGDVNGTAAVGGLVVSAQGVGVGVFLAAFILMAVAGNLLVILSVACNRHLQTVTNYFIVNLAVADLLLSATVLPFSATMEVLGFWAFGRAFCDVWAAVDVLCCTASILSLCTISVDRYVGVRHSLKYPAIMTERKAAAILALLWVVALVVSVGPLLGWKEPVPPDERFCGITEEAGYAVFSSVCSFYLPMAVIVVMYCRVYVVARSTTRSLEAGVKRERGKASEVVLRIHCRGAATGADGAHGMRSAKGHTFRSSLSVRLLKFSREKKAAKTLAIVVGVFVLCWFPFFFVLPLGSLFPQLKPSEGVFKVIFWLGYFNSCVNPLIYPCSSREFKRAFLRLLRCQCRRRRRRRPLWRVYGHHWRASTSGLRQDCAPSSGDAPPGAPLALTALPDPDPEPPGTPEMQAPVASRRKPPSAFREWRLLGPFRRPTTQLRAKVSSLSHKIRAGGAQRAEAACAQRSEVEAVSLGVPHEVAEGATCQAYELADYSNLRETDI

Experiment [2] concerns the target T2, Alpha-1B adrenergic receptor (Homo sapiens, UniProt P35368).
T2 sequence (P35368 whole entry): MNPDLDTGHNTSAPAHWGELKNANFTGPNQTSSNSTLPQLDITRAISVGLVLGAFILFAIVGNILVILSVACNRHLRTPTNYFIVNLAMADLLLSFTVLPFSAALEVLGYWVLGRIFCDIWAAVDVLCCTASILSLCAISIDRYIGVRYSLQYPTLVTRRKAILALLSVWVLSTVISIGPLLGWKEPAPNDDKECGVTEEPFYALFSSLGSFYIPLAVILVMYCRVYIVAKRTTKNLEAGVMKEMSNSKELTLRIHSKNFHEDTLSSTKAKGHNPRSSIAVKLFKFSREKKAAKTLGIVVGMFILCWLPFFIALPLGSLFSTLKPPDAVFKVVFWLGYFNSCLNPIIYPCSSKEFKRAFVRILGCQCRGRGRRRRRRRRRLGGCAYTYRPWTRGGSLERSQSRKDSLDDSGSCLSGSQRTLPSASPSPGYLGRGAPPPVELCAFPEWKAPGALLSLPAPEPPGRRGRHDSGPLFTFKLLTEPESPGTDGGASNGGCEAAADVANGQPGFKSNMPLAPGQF

Experiment [3] concerns the target T3, 5-hydroxytryptamine receptor 1A (Rattus norvegicus, UniProt P19327).
T3 sequence (P19327 whole entry): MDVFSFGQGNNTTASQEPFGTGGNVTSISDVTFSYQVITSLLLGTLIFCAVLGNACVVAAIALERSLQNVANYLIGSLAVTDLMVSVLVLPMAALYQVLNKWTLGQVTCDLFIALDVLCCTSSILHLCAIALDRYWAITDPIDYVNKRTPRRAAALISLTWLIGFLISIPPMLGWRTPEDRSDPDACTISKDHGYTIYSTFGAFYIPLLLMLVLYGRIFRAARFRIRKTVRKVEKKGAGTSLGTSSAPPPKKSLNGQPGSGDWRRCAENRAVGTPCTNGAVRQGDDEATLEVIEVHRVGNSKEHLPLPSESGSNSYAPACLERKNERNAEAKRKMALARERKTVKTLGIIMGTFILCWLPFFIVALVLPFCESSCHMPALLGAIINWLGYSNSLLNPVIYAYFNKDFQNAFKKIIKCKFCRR

In experiment [4] the target is T4, Alpha-1A adrenergic receptor (Homo sapiens, UniProt P35348).
T4 sequence (P35348 whole entry): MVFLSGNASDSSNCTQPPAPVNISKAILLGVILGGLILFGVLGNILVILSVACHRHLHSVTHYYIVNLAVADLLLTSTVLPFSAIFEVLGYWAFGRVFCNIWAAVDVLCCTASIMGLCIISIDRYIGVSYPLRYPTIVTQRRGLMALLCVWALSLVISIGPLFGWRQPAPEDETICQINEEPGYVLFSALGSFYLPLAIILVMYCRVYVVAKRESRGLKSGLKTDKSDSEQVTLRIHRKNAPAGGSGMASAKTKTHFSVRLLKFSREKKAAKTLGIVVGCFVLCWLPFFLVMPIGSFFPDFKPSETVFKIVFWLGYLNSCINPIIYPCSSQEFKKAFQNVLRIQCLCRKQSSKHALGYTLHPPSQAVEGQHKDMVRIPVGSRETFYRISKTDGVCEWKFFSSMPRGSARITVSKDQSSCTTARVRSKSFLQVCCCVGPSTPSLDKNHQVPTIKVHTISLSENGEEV

`COc1ccccc1N1CCN(CCN(C(=O)C2CCCCC2)c2ccccc2[N+](=O)[O-])CC1` [N-[2-[4-(2-methoxyphenyl)-1-piperazinyl]-ethyl]-N-(2-nitrophenyl)cyclohexanecarboxamide]: the Ki in experiment [1] was determined as 5.7 nM; in experiment [2] it was 105 nM; in experiment [3], 0.7 nM; in experiment [4], 81 nM.
